Assay results from ChEMBL document CHEMBL3352148, “Docking based virtual screening and molecular dynamics study to identify potential monoacylglycerol lipase inhibitors” (Bioorg Med Chem Lett, 2014).

What was measured:
[1] = Predicted human oral absorption (QikProp); conditions: in silico
[2] = Retention time of the compound by UPLC-MS/MS method; type: physicochemical
[3] = target: T1, Monoglyceride lipase (Homo sapiens, UniProt Q99685); experiment: Inhibition of human MAGL using 4-Nitrophenylacetate substrate incubated for 15 mins
T1 sequence (Q99685 whole entry): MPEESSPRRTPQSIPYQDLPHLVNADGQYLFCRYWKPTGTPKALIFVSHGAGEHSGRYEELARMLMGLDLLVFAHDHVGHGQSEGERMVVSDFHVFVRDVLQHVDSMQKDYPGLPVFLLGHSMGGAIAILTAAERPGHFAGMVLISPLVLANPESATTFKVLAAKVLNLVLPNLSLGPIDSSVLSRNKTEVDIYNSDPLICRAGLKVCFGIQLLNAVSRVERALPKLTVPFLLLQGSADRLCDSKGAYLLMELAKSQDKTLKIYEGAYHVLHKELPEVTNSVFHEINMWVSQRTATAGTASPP

Row | Fa [1] | Retention_time [2] | IC50 [3] | SMILES
1 | 100% |  |  | O=C(NCc1ccc2c(c1)OCO2)[C@H]1CC(=O)N(c2ccc(OCc3ccccc3Cl)cc2)C1
2 | 100% | 1.55 min |  | Cc1cc(C)cc(NC(=O)[C@@H]2CC(=O)N(CCc3c[nH]c4ccc(F)cc34)C2)c1
3 |  | 2.01 min |  | O=C(NCc1ccc2c(c1)OCO2)[C@@H]1CC(=O)N(c2ccc(OCc3ccccc3Cl)cc2)C1
4 | 77.9% | 1.68 min |  | Cc1ccc(N2C[C@H](C(=O)NCc3n[nH]c(=O)c4ccccc34)CC2=O)cc1C
5 | 80.4% |  |  | COc1ccc2cc(-c3nc4sc(C(=O)Nc5ccccc5OC)cc4c(=O)[nH]3)c(=O)oc2c1

The remaining lines, values behind:

Row | SMILES | Fa [1] | Retention_time [2] | IC50 [3]
6 | COc1nn(-c2ccc(NC(=O)OCc3ccccc3)c(C)c2)c(=O)o1 |  |  | 0.02 µM
7 | C[C@H]1CCCC[C@@H]1NC(=O)CC[C@@H]1NC(=O)N(CCc2c[nH]c3ccc(F)cc23)C1=O | 90.7% | 2.26 min | > 100 µM
8 | O=C(COc1ccc2ccccc2c1)Nn1ccc2c(nnc3c(-c4ccc(F)cc4)cnn32)c1=O | 100% | 1.29 min | > 100 µM
9 | O=C(Cn1nnc2ccccc21)Nc1ccc(-c2nc3ccccc3s2)cc1 | 100% | 1.72 min | 
